{"source": "the supplement of paper PMC10307832", "data": [{"compound": "COc1cc(Nc2ncc(F)c(Nc3ccc4c(n3)NC(=O)C(C)(C)O4)n2)cc(OC)c1OC [R406] + CCNC(=O)c1noc(-c2cc(C(C)C)c(O)cc2O)c1-c1ccc(CN2CCOCC2)cc1 [Luminespib] (partner 0.01 µM)", "assay": "relative viability (nuclei count vs DMSO), 5 days (fraction); higher = more cells survive", "conditions": "first compound 8 µM", "method_in_brief": "(§1)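 A single step with final 0.05% Triton X-100, 1% formaldehyde and 1 ug/ml Hoechst fixed the cells and stained nuclei 5 days after treatment. Lung cancer cell lines in 1536-well plates had been treated by pin tool the day after seeding with one drug alone or a fixed anchor-drug dose plus five library-drug doses (not always all listed) in √10 steps, and nuclei were counted on 4× images. Relative viability is the ratio of nuclei in treated wells to nuclei in vehicle wells, taken as the median of duplicate plates.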", "values": [{"cell line": "NCI-H1651", "relative viability": 0.793}, {"cell line": "EPLC-272H", "relative viability": 0.0888}, {"cell line": "NCI-H2228", "relative viability": 0.0961}, {"cell line": "NCI-H1355", "relative viability": 0.39}, {"cell line": "NCI-H3122", "relative viability": 0.0937}, {"cell line": "NCI-H1437", "relative viability": 0.966}, {"cell line": "NCI-H1755", "relative viability": 0.334}, {"cell line": "NCI-H2023", "relative viability": 0.144}]}, {"compound": "COc1cc(Nc2ncc(F)c(Nc3ccc4c(n3)NC(=O)C(C)(C)O4)n2)cc(OC)c1OC [R406] + Cc1nc(Nc2ncc(C(=O)Nc3c(C)cccc3Cl)s2)cc(N2CCN(CCO)CC2)n1 [Dasatinib] (partner 0.075 µM)", "assay": "relative viability (nuclei count vs DMSO), 5 days (fraction); higher = more cells survive", "conditions": "first compound 0.08 µM", "method_in_brief": "as §1", "values": [{"cell line": "NCI-H1793", "relative viability": 0.407}, {"cell line": "NCI-H2405", "relative viability": 0.19}, {"cell line": "HOP-62", "relative viability": 0.618}, {"cell line": "SK-MES-1", "relative viability": 0.397}, {"cell line": "LU99A", "relative viability": 0.553}, {"cell line": "BEN", "relative viability": 0.337}, {"cell line": "HARA", "relative viability": 0.235}, {"cell line": "SW 900", "relative viability": 0.592}, {"cell line": "NCI-H322M", "relative viability": 0.237}, {"cell line": "LCLC-97TM1", "relative viability": 0.83}, {"cell line": "NCI-H2009", "relative viability": 0.25}, {"cell line": "A-427", "relative viability": 0.743}, {"cell line": "NCI-H460", "relative viability": 0.477}, {"cell line": "NCI-H727", "relative viability": 0.347}, {"cell line": "NCI-H1734", "relative viability": 0.537}, {"cell line": "NCI-H520", "relative viability": 0.209}, {"cell line": "NCI-H2347", "relative viability": 0.322}, {"cell line": "SW 1573", "relative viability": 0.492}, {"cell line": "NCI-H1395", "relative viability": 0.441}, {"cell line": "201T", "relative viability": 0.578}, {"cell line": "NCI-H1915", "relative viability": 0.301}, {"cell line": "HCC-827", "relative viability": 0.309}, {"cell line": "LXF-289", "relative viability": 0.229}, {"cell line": "NCI-H23", "relative viability": 0.7}, {"cell line": "NCI-H650", "relative viability": 0.463}, {"cell line": "CAL-12T", "relative viability": 0.357}, {"cell line": "NCI-H1651", "relative viability": 0.402}, {"cell line": "EPLC-272H", "relative viability": 0.319}, {"cell line": "NCI-H2228", "relative viability": 0.442}, {"cell line": "NCI-H1355", "relative viability": 0.754}, {"cell line": "NCI-H3122", "relative viability": 0.743}, {"cell line": "NCI-H1437", "relative viability": 0.439}, {"cell line": "NCI-H1755", "relative viability": 0.401}, {"cell line": "NCI-H2023", "relative viability": 0.519}]}, {"compound": "COc1cc(Nc2ncc(F)c(Nc3ccc4c(n3)NC(=O)C(C)(C)O4)n2)cc(OC)c1OC [R406] + Cc1nc(Nc2ncc(C(=O)Nc3c(C)cccc3Cl)s2)cc(N2CCN(CCO)CC2)n1 [Dasatinib] (partner 0.075 µM)", "assay": "relative viability (nuclei count vs DMSO), 5 days (fraction); higher = more cells survive", "conditions": "first compound 0.253 µM", "method_in_brief": "as §1", "values": [{"cell line": "NCI-H1793", "relative viability": 0.466}, {"cell line": "NCI-H2405", "relative viability": 0.226}, {"cell line": "HOP-62", "relative viability": 0.73}, {"cell line": "SK-MES-1", "relative viability": 0.371}, {"cell line": "LU99A", "relative viability": 0.607}, {"cell line": "BEN", "relative viability": 0.312}, {"cell line": "HARA", "relative viability": 0.267}, {"cell line": "SW 900", "relative viability": 0.384}, {"cell line": "NCI-H322M", "relative viability": 0.245}, {"cell line": "LCLC-97TM1", "relative viability": 0.863}, {"cell line": "NCI-H2009", "relative viability": 0.302}, {"cell line": "A-427", "relative viability": 0.746}, {"cell line": "NCI-H460", "relative viability": 0.584}, {"cell line": "NCI-H727", "relative viability": 0.432}, {"cell line": "NCI-H1734", "relative viability": 0.559}, {"cell line": "NCI-H520", "relative viability": 0.235}, {"cell line": "NCI-H2347", "relative viability": 0.339}, {"cell line": "SW 1573", "relative viability": 0.539}, {"cell line": "NCI-H1395", "relative viability": 0.444}, {"cell line": "201T", "relative viability": 0.548}, {"cell line": "NCI-H1915", "relative viability": 0.321}, {"cell line": "HCC-827", "relative viability": 0.252}, {"cell line": "LXF-289", "relative viability": 0.241}, {"cell line": "NCI-H23", "relative viability": 0.878}, {"cell line": "NCI-H650", "relative viability": 0.513}, {"cell line": "CAL-12T", "relative viability": 0.397}, {"cell line": "NCI-H1651", "relative viability": 0.468}, {"cell line": "EPLC-272H", "relative viability": 0.39}, {"cell line": "NCI-H2228", "relative viability": 0.695}, {"cell line": "NCI-H1355", "relative viability": 0.79}, {"cell line": "NCI-H3122", "relative viability": 0.844}, {"cell line": "NCI-H1437", "relative viability": 0.408}, {"cell line": "NCI-H1755", "relative viability": 0.508}, {"cell line": "NCI-H2023", "relative viability": 0.642}]}, {"compound": "COc1cc(Nc2ncc(F)c(Nc3ccc4c(n3)NC(=O)C(C)(C)O4)n2)cc(OC)c1OC [R406] + Cc1nc(Nc2ncc(C(=O)Nc3c(C)cccc3Cl)s2)cc(N2CCN(CCO)CC2)n1 [Dasatinib] (partner 0.075 µM)", "assay": "relative viability (nuclei count vs DMSO), 5 days (fraction); higher = more cells survive", "conditions": "first compound 0.8 µM", "method_in_brief": "as §1", "values": [{"cell line": "NCI-H1793", "relative viability": 0.423}, {"cell line": "NCI-H2405", "relative viability": 0.224}, {"cell line": "HOP-62", "relative viability": 0.797}, {"cell line": "SK-MES-1", "relative viability": 0.363}]}]}
